Experimental data published in PMC11195807, “Development of a multi-targeted chemotherapeutic approach based on G-quadruplex stabilisation and carbonic anhydrase inhibition” (Journal of Enzyme Inhibition and Medicinal Chemistry, 2024).
Counter-ions that a name gives are not always drawn.

Tests used:
Hairpin = assay: CD melting experiments, hairpin DNA duplex; details: 2 molar equiv compound, T1/2 of DNA alone 66.0 °C
Method: To evaluate the possible binding and stabilisation of double-stranded DNA, a 27-nt long hairpin-forming sequence (Hairpin) was employed.
In particular, the following DNA sequences were synthesised and employed for the experiments: d([sequence]) (c-Kit1), d([sequence]) (c-Myc), d([sequence]) (Tel23), and d([sequence]) (Hairpin). Oligonucleotides were dissolved in the proper buffer and their concentration was measured by UV absorption at 90 °C, as previously reported[80]^,[81]. To achieve the correct folding of the sequences, the DNA solutions were heated in a water bath at 90 °C for 5 min, and then allowed to cool slowly to room temperature overnight. Then, DNA samples were stored at 4 °C for 24 h, before data acquisition.
The samples were prepared by dissolving the oligonucleotides in 5 mM KH2PO4/K2HPO4 buffer (pH 7.0) containing 20 mM KCl (or LiCl in the case of c-Myc because of its high thermal stability). DNA concentrations of 20 µM for GQs and 30 µM for Hairpin were used. For each compound, a 10 mM stock solution in 100% DMSO was prepared. […] CD spectra were acquired at 20 and 100 °C, in the 230–320 nm wavelength range, averaged over three scans and subtracted of the buffer baseline. The scanning speed was set to 100 nm/min, with a 0.5 s response time, and 1 nm bandwidth. CD melting experiments were carried out in the 20–100 °C temperature range, with 1 °C/min heating rate, by following changes in the CD signal at the wavelengths of the maximum CD intensity (i.e. 263 nm for c-Kit1 and c-Myc, and 290 nm for Tel23). As for Hairpin, CD melting curves were recorded by following the changes in the CD signal at 252 nm (the wavelength of the minimum CD intensity). CD melting curves were normalised between 0 and 1. […] The ΔT1/2 values correspond to the difference in the T1/2 values of the nucleic acid structures in the presence and absence of the compounds. All experiments were performed in duplicate, and the reported values are the mean of the two measurements.

c-Kit1 = assay: CD melting experiments, c-Kit1 GQ; format: binding; details: 2 molar equiv compound, T1/2 of DNA alone 55.0 °C
From the text: (§1) The 21 synthesised MTDLs were screened for their ability to bind to and stabilise DNA GQ-forming sequences, compared to berberine, by CD experiments. Indeed, circular dichroism has shown to be outstandingly useful and informative for noncanonical nucleic acid secondary structures. For this purpose, a G-rich 23-nucleotide truncation (23-nt) of the human telomeric sequence (Tel23) and two G-rich motifs from the promoter regions of c-KIT (c-Kit1) and c-MYC (c-Myc) oncogenes were employed. First, the overall topology adopted by each DNA sequence in K^+-containing buffer was verified by CD spectra. […] GQ conformation (Figure S1, Supporting Information). On the other hand, c-Kit1 and c-Myc sequences adopted a parallel GQ conformation, showing a distinctive positive band at around 260 nm and a negative one at ∼240 nm in their CD spectra (Figures S2 and S3, Supporting Information).
(§2) Afterwards, the GQ-stabilising properties of the molecules were assessed by CD melting experiments, measuring the differences in the apparent melting temperatures of the DNA in the presence and absence of compounds (ΔT1/2) (Figures S4–S6 and Table S2, Supporting Information). […] This could be explained by considering the higher accessibility of the external G-tetrads in the case of parallel GQs compared to the hybrid one[52], which would allow the additional CAI moiety of conjugated compounds to be better accommodated in the binding site. […] . […] .

Tel23 = assay: CD melting experiments, Tel23 GQ; format: binding, human; details: 2 molar equiv compound, T1/2 of DNA alone 53.5 °C
From the text: as §1, §2

c-Myc = assay: CD melting experiments, c-Myc GQ; format: binding; details: 1 molar equiv compound, T1/2 of DNA alone 70.0 °C
From the text: as §1, §2

HeLa cells = assay: MTT assay, HeLa cells in normoxia; format: cell-based; details: 48 h
From the text: Combining the results on carbonic anhydrase inhibition and GQ thermal stabilisation, we selected the sulphonamides S-2,0, S-4,0, S-5,0 and the coumarins C-3,2, C-4,2, C-5,2 as the most promising MTDLs to be further investigated, since able to both efficiently suppress the activity of the hCAs IX/XII and stabilise GQ structures, in vitro. Moreover, given that crystals suitable for X-ray diffraction analyses had been successfully obtained for the human telomeric DNA GQ in complex with S-3,2, we also included such sulphonamide derivative in the subsequent studies. Thus, we assessed the cytotoxicity of the selected MTDLs on CA IX-positive HeLa cells, using the MTT assay.
HeLa cells were grown in Dulbecco’s Modified Eagle’s Medium supplemented with 10% FBS, 100 U/mL penicillin, and 100 μg/mL streptomycin, at 37 °C, in a 5% CO2/95% air atmosphere. Cells were sub-cultured at 90% confluence, in the split ratio 1:8, every 3–5 days. The MTDLs used in this study, as well as the CAIs S and C, were dissolved in DMSO at 40 mM (for the sulphonamides) or 10 mM (for the coumarins) concentration. As for berberine, a 50 mM stock solution in DMSO was prepared. Each tested compound was diluted in cell culture medium to the required concentration, immediately prior to use. As regards the experiments under hypoxic conditions, an 80 mM stock solution of CoCl2 was prepared in sterile distilled water and further diluted in medium to obtain the final desired concentrations.
For the MTT experiments in the presence of normal oxygen levels, HeLa cells were seeded in 96-well plates at a density of 15,000 cells per well (culture medium volume – 100 μL/well) and incubated at 37 °C, for 24 h. The medium was then removed, and HeLa were incubated, for 48 h, with fresh medium containing increasing concentrations of MTDLs, single-target-directed agents (berberine, S, and C) or vehicle (0.5% DMSO). The MTDL C-4,2 was also tested for 12 h. As for the co-treatments, cells were co-treated for 12 h with equimolar concentrations of berberine and C. As regards the MTT experiments under hypoxic conditions, HeLa cells were seeded in 96-well plates (8,000 cells per well) and incubated overnight, pre-treated with 50 μM cobalt (II) chloride hexahydrate (CoCl2) and then, for the following 12 h, either exposed to increasing concentrations of C-4,2 or vehicle (0.5% DMSO), or co-treated with equimolar concentrations of berberine and C. Each condition was assayed in triplicate. At the end of the treatments, 10 µL of MTT reagent were added to each well, at a final concentration of 0.5 mg/mL, and the plates were incubated at 37 °C for 4 h. To dissolve the resulting purple formazan crystals, 100 μL of the solubilisation solution were added into each well and the plates were allowed to stand overnight in the incubator (37 °C, 5% CO2/95% air). Finally, the optical density of the samples (at 570 nm) was measured on an ELx800 Absorbance Microplate Reader (BioTek Instruments, Inc., Winooski, VT, USA). The percentage (%) of cell survival for each condition was calculated by using the following equation: % cell survival=OD− OD0/ODCONTROL− OD0×100 where OD is the optical density of the sample, OD0 is the optical density of the background signal, and ODCONTROL is the optical density of the control sample (cells treated with vehicle, 0.5% DMSO). The concentration able to reduce by 50% the cellular viability (IC50) was calculated, for each investigated compound, using Prism 8.0.2 (GraphPad, San Diego, CA, USA) and plotting the percentage of cell survival versus the compound concentration (µM).

COc1ccc2cc3[n+](cc2c1OCc1cn(CCCCOc2ccc4ccc(=O)oc4c2)nn1)CCc1cc2c(cc1-3)OCO2 (as salt: phosphate) [Compound 43, 10-Methoxy-9-((1–(4-((2-oxo-2H-chromen-7-yl)oxy)butyl)-1H-1,2,3-triazol-4-yl)methoxy)-5,6-dihydro-[1,3]dioxolo[4,5-g]isoquinolino[3,2-a]isoquinolin-7-ium hexafluorophosphate]
melting point: 124 to 125 °C

COc1ccc2cc3[n+](cc2c1OCCn1cc(-c2ccc(S(N)(=O)=O)cc2)nn1)CCc1cc2c(cc1-3)OCO2 (as salt: phosphate) [Compound 26, 10-Methoxy-9–(2-(4–(4-sulfamoylphenyl)-1H-1,2,3-triazol-1-yl)ethoxy)-5,6-dihydro-[1,3]dioxolo[4,5-g]isoquinolino[3,2-a]isoquinolin-7-ium hexafluorophosphate]
melting point: 212 to 215 °C

COc1ccc2cc3[n+](cc2c1OCCCCCn1cc(COc2ccc(S(N)(=O)=O)cc2)nn1)CCc1cc2c(cc1-3)OCO2 (as salt: phosphate) [Compound 33, 10-Methoxy-9-((5–(4-((4-sulfamoylphenoxy)methyl)-1H-1,2,3-triazol-1-yl)pentyl)oxy)-5,6-dihydro-[1,3]dioxolo[4,5-g]isoquinolino[3,2-a]isoquinolin-7-ium hexafluorophosphate]
melting point: 168 to 171 °C

COc1ccc2cc3[n+](cc2c1OCc1cn(CCCOc2ccc4ccc(=O)oc4c2)nn1)CCc1cc2c(cc1-3)OCO2 (as salt: phosphate) [Compound 42, 10-Methoxy-9-((1–(3-((2-oxo-2H-chromen-7-yl)oxy)propyl)-1H-1,2,3-triazol-4-yl)methoxy)-5,6-dihydro-[1,3]dioxolo[4,5-g]isoquinolino[3,2-a]isoquinolin-7-ium hexafluorophosphate]
melting point: 117 to 118 °C

COc1ccc2cc3[n+](cc2c1OCCCn1cc(CCOc2ccc4ccc(=O)oc4c2)nn1)CCc1cc2c(cc1-3)OCO2 (as salt: phosphate) [Compound 35, 10-Methoxy-9–(3-(4–(2-((2-oxo-2H-chromen-7-yl)oxy)ethyl)-1H-1,2,3-triazol-1-yl)propoxy)-5,6-dihydro-[1,3]dioxolo[4,5-g]isoquinolino[3,2-a]isoquinolin-7-ium hexafluorophosphate]
melting point: 130 to 131 °C

COc1ccc2cc3[n+](cc2c1OCCCn1cc(COc2ccc4ccc(=O)oc4c2)nn1)CCc1cc2c(cc1-3)OCO2 (as salt: phosphate) [Compound 34, 10-Methoxy-9–(3-(4-(((2-oxo-2H-chromen-7-yl)oxy)methyl)-1H-1,2,3-triazol-1-yl)propoxy)-5,6-dihydro-[1,3]dioxolo[4,5-g]isoquinolino[3,2-a]isoquinolin-7-ium hexafluorophosphate]
melting point: 140 °C

COc1ccc2cc3[n+](cc2c1OCCCCn1cc(COc2ccc(S(N)(=O)=O)cc2)nn1)CCc1cc2c(cc1-3)OCO2 (as salt: phosphate) [Compound 31, 10-Methoxy-9–(4-(4-((4-sulfamoylphenoxy)methyl)-1H-1,2,3-triazol-1-yl)butoxy)-5,6-dihydro-[1,3]dioxolo[4,5-g]isoquinolino[3,2-a]isoquinolin-7-ium hexafluorophosphate]
melting point: 165 to 168 °C

COc1ccc2cc3[n+](cc2c1OCCCn1cc(COc2ccc(S(N)(=O)=O)cc2)nn1)CCc1cc2c(cc1-3)OCO2 (as salt: phosphate) [Compound 29, 10-Methoxy-9–(3-(4-((4-sulfamoylphenoxy)methyl)-1H-1,2,3-triazol-1-yl)propoxy)-5,6-dihydro-[1,3]dioxolo[4,5-g]isoquinolino[3,2-a]isoquinolin-7-ium hexafluorophosphate]
melting point: 120 to 122 °C

COc1ccc2cc3[n+](cc2c1OCCCn1cc(-c2ccc(S(N)(=O)=O)cc2)nn1)CCc1cc2c(cc1-3)OCO2 (as salt: phosphate) [Compound 28, 10-Methoxy-9–(3-(4–(4-sulfamoylphenyl)-1H-1,2,3-triazol-1-yl)propoxy)-5,6-dihydro-[1,3]dioxolo[4,5-g]isoquinolino[3,2-a]isoquinolin-7-ium hexafluorophosphate]
melting point: 205 to 208 °C

COc1ccc2cc3[n+](cc2c1OCc1cn(-c2ccc4c(C)cc(=O)oc4c2)nn1)CCc1cc2c(cc1-3)OCO2 (as salt: phosphate) [Compound 45, 10-Methoxy-9-((1–(4-methyl-2-oxo-2H-chromen-7-yl)-1H-1,2,3-triazol-4-yl)methoxy)-5,6-dihydro-[1,3]dioxolo[4,5-g]isoquinolino[3,2-a]isoquinolin-7-ium hexafluorophosphate]
melting point: 280 to 282 °C

COc1ccc2cc3[n+](cc2c1OC)CCc1cc2c(cc1-3)OCO2 [Berberine, berberine, reference compound]
ΔT1/2 Hairpin (Hairpin): +0.2 °C | ΔT1/2 c-Kit1 (c-Kit1): 13.0 °C | ΔT1/2 Tel23 (Tel23): 9.5 °C | ΔT1/2 c-Myc (c-Myc): 12.0 °C | effect on HeLa cell viability (in words) (HeLa cells; increasing concentrations): good dose-dependent cytotoxic effect | IC50 (HeLa cells; Homo sapiens, normoxia, read-out: IC50 (50% of cell viability reduction), MTT assay): 75 µM

COc1ccc2cc3[n+](cc2c1OCCCCn1cc(CCOc2ccc4ccc(=O)oc4c2)nn1)CCc1cc2c(cc1-3)OCO2 (as salt: phosphate) [Compound 38, 10-Methoxy-9–(4-(4–(2-((2-oxo-2H-chromen-7-yl)oxy)ethyl)-1H-1,2,3-triazol-1-yl)butoxy)-5,6-dihydro-[1,3]dioxolo[4,5-g]isoquinolino[3,2-a]isoquinolin-7-ium hexafluorophosphate]
melting point: 185 to 186 °C

COc1ccc2cc3[n+](cc2c1OCc1cn(-c2cccc(S(N)(=O)=O)c2)nn1)CCc1cc2c(cc1-3)OCO2 (as salt: phosphate) [Compound 40, 10-Methoxy-9-((1–(3-sulfamoylphenyl)-1H-1,2,3-triazol-4-yl)methoxy)-5,6-dihydro-[1,3]dioxolo[4,5-g]isoquinolino[3,2-a]isoquinolin-7-ium hexafluorophosphate]
melting point: 195 to 198 °C

COc1ccc2cc3[n+](cc2c1OCCCCCn1cc(-c2ccc(S(N)(=O)=O)cc2)nn1)CCc1cc2c(cc1-3)OCO2 (as salt: phosphate) [Compound 32, 10-Methoxy-9-((5–(4-(4-sulfamoylphenyl)-1H-1,2,3-triazol-1-yl)pentyl)oxy)-5,6-dihydro-[1,3]dioxolo[4,5-g]isoquinolino[3,2-a]isoquinolin-7-ium hexafluorophosphate]
melting point: 200 to 202 °C
